# From publication PMC11094793, “Discovery of LLC0424 as a Potent and Selective in Vivo NSD2 PROTAC Degrader” (Journal of Medicinal Chemistry, 2024)
# Key:
# RPMI-8402 cells = experiment: Colony formation in soft agar; format: cell-based, human; conditions: 30 days
# Description: Colony formation in soft agar was conducted in 12-well plates, with the bottom layer containing 750 μL of 0.8% agarose in 10% FBS/cell media and the top layer containing 0.4% agarose (SEM cells or RPMI-8402 cells). LLC0424 was added every 3 days to the liquid layer on top agarose to reach a final concentration of 2 μM. At the 30 days of treatment, the cells were stained with iodonitrotetrazolium chloride (INT) by adding 500 μL 1× INT PBS solution into each well. After the staining, images were taken using brightfield microscope and plate scan was conducted using Epson Perfection V700 Photo. Colony number counting was performed using ImageJ.
# NSD2 = target: T1, NSD2 (Homo sapiens, UniProt O96028, E1099K); experiment: Pharmacodynamic assessment in SEM xenograft model (IHC, Western blot); format: in vivo, mice; conditions: 60 mg/kg iv, 5 consecutive days, versus vehicle
# T1 construct: from tissue; host or cells: SEM subcutaneous xenograft tumours in CB17 SCID mice
# T1 sequence (O96028 1-1365 E1099K): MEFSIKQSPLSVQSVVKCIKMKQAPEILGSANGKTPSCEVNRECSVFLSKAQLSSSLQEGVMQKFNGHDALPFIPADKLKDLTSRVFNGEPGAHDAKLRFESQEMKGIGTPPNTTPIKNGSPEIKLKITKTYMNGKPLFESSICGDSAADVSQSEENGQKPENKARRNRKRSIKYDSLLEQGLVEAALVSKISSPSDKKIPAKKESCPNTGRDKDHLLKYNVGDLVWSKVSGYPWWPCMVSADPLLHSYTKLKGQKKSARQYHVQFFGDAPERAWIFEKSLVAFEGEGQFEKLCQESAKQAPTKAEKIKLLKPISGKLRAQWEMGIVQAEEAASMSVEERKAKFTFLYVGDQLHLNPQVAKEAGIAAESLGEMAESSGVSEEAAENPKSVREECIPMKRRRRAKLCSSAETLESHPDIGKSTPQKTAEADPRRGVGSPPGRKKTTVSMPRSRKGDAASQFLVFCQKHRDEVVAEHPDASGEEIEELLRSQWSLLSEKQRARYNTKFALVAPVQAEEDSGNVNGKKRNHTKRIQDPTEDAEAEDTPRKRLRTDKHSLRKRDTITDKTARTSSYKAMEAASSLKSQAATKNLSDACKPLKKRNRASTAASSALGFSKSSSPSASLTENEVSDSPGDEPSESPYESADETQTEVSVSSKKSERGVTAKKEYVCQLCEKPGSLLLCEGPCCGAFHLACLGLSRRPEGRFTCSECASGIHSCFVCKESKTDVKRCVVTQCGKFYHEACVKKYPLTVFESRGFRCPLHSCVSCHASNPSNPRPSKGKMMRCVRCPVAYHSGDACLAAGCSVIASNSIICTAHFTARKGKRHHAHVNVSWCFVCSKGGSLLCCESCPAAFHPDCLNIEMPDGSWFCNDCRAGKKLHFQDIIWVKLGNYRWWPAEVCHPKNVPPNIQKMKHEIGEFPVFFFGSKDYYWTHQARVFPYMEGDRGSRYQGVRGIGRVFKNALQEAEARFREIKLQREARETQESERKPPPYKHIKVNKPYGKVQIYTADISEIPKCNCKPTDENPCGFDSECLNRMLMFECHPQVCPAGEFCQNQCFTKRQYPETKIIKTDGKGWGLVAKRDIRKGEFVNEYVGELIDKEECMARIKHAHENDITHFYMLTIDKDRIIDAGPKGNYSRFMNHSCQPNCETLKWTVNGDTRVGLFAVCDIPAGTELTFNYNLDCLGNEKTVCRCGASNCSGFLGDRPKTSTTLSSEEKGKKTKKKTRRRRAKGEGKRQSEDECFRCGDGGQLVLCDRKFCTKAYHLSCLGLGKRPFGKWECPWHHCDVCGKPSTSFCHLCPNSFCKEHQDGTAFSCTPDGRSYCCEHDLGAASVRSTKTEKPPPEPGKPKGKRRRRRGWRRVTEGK
# Description: We finally performed pharmacodynamic assessment of LLC0424 in both the SEM and 22RV1 xenograft model. Based on the solubility of LLC0424 and the tolerance of the mice, we chose 60 mg/kg as the dosage for the pharmacodynamic study. LLC0424 was administrated by intravenous (iv) or intraperitoneal (ip) injection at a dose of 60 mg/kg for 5 consecutive days. The tumor tissues were harvested at day 5 and subjected to histology and Western blot analysis (Figure 7A, and SI, Figure S6A).
# First, 6–8 weeks old male CB17 severe combined immunodeficiency (SCID) mice were procured from the University of Michigan breeding colony. Subcutaneous tumors were established at both sides of the dorsal flank of mice. Tumors were measured at least biweekly using digital calipers following the formula (π/6) (L × W2), where L is length and W is width of the tumor. At the end of the studies, mice were sacrificed and tumors extracted. For each tumor, a part is […] followed by embedding in paraffin to make tissue blocks. The blocks were sectioned at […] for immunohistochemistry analysis. Another part is made into tissue lysates for Western blotting analysis. The University of Michigan Institutional Animal Care and Use Committee (IACUC) approved all in vivo studies. […]
# [1] = compared to DMSO or LLC0424N-treated group
structure (smiles),measurement,setting,value
"O=C1CCC(N2C(=O)c3ccc(N4CCC(NC(=O)c5ccc(NC(=O)c6ccc(CN(C(=O)c7ccc8c(c7)OCC(=O)N8)C7CC7)cc6)cc5)CC4)cc3C2=O)C(=O)N1 (stereo not shown) [compound 10l, N-Cyclopropyl-N-(4-((4-((1-(2-(2,6-dioxopiperidin-3-yl)-1,3-dioxoisoindolin-5-yl)piperidin-4-yl)carbamoyl)phenyl)carbamoyl)benzyl)-3-oxo-3,4-dihydro-2H-benzo[b][1,4]oxazine-7-carboxamide]",formation of cell colonies,"RPMI-8402 cells; 2 μM, INT staining",significantly reduced the formation of cell colonies
same,colony area,RPMI-8402 cells; [1],obviously smaller colonies
same,colony numbers,RPMI-8402 cells; [1],significantly fewer cell colonies
same,NSD2 level in tumor tissue,NSD2,significantly downregulated
